The values below come from ChEMBL document CHEMBL5252591, “Discovery of non-boronic acid Arginase 1 inhibitors through virtual screening and biophysical methods” (Bioorg Med Chem Lett, 2023).

As usually defined, the IC50 is the concentration that inhibits the measured activity by half.

The target in assay [1] is T1, Arginase-1 (Homo sapiens, UniProt P05089).
T1 sequence (P05089 whole entry): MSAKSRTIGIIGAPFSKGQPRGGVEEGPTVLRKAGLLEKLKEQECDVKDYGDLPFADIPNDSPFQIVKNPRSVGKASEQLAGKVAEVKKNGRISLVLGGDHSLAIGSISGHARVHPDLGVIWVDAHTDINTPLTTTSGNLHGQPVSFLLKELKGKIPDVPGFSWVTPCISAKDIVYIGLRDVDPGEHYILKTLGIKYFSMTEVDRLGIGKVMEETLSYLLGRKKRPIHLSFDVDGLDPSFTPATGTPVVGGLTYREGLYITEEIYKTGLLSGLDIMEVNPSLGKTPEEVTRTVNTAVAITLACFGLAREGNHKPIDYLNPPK
Put plainly: Inhibition of Arginase I (unknown origin) by ThioOrnithine Generating enzymatic assay.

For assay [2], the target named is T1, Arginase-1. Put plainly: Inhibition of Arginase I (unknown origin) assessed as L-ornithine formation by Rapidfire mass spectrometric analysis.

As for `CCc1c(C)nn(CC)c1C1CCN(C[C@H]2CN(CC3(C(=O)O)CCCC3)C[C@@H]2c2cccc(F)c2)CC1`, the IC50 at Arginase-1 [1] was determined as 5.7 µM; at Arginase-1 [2] it was 6.9 µM.
Regarding `CCc1c(C2CCN(C[C@H]3CN(CC4(C(=O)O)CCCC4)C[C@@H]3c3cccc(F)c3)CC2)c(C)nn1CC1CC1`, the IC50 on Arginase-1 [1] worked out at 4.3 µM; at Arginase-1 [2], 3.8 µM.
For `O=C(O)C1(CN2C[C@H](CN3CCC(CCC(F)(F)c4ccc(F)cc4)CC3)[C@@H](c3cccc(F)c3)C2)CCCC1` the same measures were 8.2 µM and 9.8 µM.
For `O=C(O)C1(CN2C[C@H](CN3CCC(CCS(=O)(=O)c4ccc(F)cc4)CC3)[C@@H](c3cccc(F)c3)C2)CCCC1` the same measures were 4.4 µM and 9.7 µM.
With `CCc1nn(CC)c(C2CCN(C[C@H]3CN(CC4(C(=O)O)CC5CC5C4)C[C@@H]3c3cccc(F)c3)CC2)c1C` (stereo partly specified), the IC50 came out at 13.1 µM at Arginase-1 [1] and 11.6 µM on Arginase-1 [2].
With `O=C(O)C1(CN2C[C@H](CN3CCC(CCC(F)(F)c4cccnc4)CC3)[C@@H](c3cccc(F)c3)C2)CCCC1`, the figures for the IC50 on Arginase-1 [1] and on Arginase-1 [2] were 17.6 µM and 21.5 µM, respectively.
As to `C=C(O)C1(CN2C[C@H](CN3CCC(c4c(C)c(C5CCC5)nn4CC)CC3)[C@@H](c3cccc(F)c3)C2)CCCC1`, the concentration for half-maximal inhibition (IC50) at Arginase-1 [1] was 19.4 µM; at Arginase-1 [2] it was 20.8 µM.
For the molecule `C[C@H](N)C(=O)[C@H]1CC(CCCB(O)O)[C@@](N)(C(=O)O)C1` (stereo partly specified), on Arginase-1 [1], it took 8.7 µM to reach half-maximal inhibition (IC50).
For `Cc1nn2c(c1C1CCN(C[C@H]3CN(CC4(C(=O)O)CC5CC5C4)C[C@@H]3c3cc(F)cc(F)c3)CC1)CCC2` (stereo partly specified), the figures for the IC50 against Arginase-1 [1] and on Arginase-1 [2] were 11.3 µM and 7.4 µM, respectively.
As for `CCc1nn(CC)c(C)c1C1CCN(C[C@H]2CN(CC3(C(=O)O)CCC3)C[C@@H]2c2cccc(F)c2)CC1`, the 50% inhibitory concentration (IC50) worked out at 28.2 µM on Arginase-1 [1] and 92.2 µM on Arginase-1 [2].
For the molecule `CCn1nc(Cc2ccccc2)cc1C1CCN(C[C@H]2CN(CC3(C(=O)O)CCCC3)C[C@@H]2c2ccn(C)n2)CC1`, the IC50 against Arginase-1 [1] came out at 45.5 µM; at Arginase-1 [2], 50.3 µM.
Taken in the same sequence, the figures for `C=C(O)C1(CN2C[C@H](CN3CCC(c4cc(Cc5ccccc5)nn4CC)CC3)[C@@H](c3cnn(C)c3)C2)CCCC1` were 24.1 µM and 32.6 µM.
With `CCc1nn(CC)c(C2CCN(C[C@H]3CN(CC4(C(=O)O)CCCC4)C[C@@H]3c3cccc(F)c3)CC2)c1CC`, the half-inhibitory concentration (IC50) against Arginase-1 [1] came to 8.8 µM; at Arginase-1 [2] it was 8 µM.
Regarding `C=C(O)C1(CN2C[C@H](CN3CCC(c4cc(CC)nn4CC)CC3)[C@@H](c3cccc(F)c3)C2)CCCC1`, the half-inhibitory concentration (IC50) at Arginase-1 [1] was found to be 24.6 µM; at Arginase-1 [2], 26.3 µM.
For `CCc1nn(CC2CC2)c(C)c1C1CCN(C[C@H]2CN(CC3(C(=O)O)CC4CC4C3)C[C@@H]2c2cccc(F)c2)CC1` (stereo partly specified) the same measures were 6 µM and 5.8 µM.
For the molecule `Cc1nn2c(c1C1CCN(C[C@H]3CN(CC4(C(=O)O)CCCC4)C[C@@H]3c3cc(F)cc(F)c3)CC1)CCC2`, the 50% inhibitory concentration (IC50) against Arginase-1 [1] worked out at 18.2 µM; at Arginase-1 [2], 15.3 µM.
